pKi: −log10 of the molar value. Where a name gives a salt, the structure may show the parent alone.

The target of test [1] is T1, neurokinin A binding, rat duodenum membranes (Rattus norvegicus, UniProt P16610).
T1 construct: rat duodenum membranes; from tissue; host or cells: rat duodenum membranes
T1 sequence (P16610 1-390): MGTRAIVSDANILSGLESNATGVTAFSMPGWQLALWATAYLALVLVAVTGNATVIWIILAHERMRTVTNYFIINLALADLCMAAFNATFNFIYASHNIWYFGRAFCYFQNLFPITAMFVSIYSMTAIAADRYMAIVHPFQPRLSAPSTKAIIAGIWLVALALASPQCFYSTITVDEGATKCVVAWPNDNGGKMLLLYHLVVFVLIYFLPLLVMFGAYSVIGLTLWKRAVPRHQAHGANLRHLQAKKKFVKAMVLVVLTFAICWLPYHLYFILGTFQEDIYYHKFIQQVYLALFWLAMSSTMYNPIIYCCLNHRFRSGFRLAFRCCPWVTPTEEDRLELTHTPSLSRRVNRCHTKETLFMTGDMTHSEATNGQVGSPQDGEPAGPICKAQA
The test can be described thus: Antagonism of binding to NKA (neurokinin A), rat duodenum membranes. The note with it: read-out: Ki, antagonises the binding of neurokinin A.

For another test, the system named is substance P binding. Kind of test: Antagonism of binding of substance P (rat cortex membranes or IM9 cells, not stated which). The note with it: preparation (rat cortex membranes or IM9 lymphoblastic cells) not given; read-out: Ki, antagonises the binding of substance P.
Test [2] concerns the target T2, eledoisin binding, rat membranes (Rattus norvegicus, UniProt P16177).
T2 construct: rat membranes; from tissue; brain cortex inferred from the cited Foster et al. 1988
T2 sequence (P16177 1-452): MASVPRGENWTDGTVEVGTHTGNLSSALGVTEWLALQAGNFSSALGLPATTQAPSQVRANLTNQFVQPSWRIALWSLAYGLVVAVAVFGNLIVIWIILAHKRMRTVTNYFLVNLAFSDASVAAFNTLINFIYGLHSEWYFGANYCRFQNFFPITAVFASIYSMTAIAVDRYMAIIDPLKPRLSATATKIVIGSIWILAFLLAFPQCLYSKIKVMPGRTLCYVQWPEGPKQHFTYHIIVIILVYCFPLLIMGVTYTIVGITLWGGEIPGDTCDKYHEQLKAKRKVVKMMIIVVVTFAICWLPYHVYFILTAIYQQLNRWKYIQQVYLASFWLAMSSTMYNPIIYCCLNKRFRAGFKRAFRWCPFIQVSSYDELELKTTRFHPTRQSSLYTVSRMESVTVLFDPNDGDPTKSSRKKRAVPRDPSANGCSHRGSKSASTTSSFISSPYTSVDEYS
Kind of test: Antagonism of binding to eledoisin, rat membranes. The conditions noted are these: read-out: Ki, antagonises the binding of eledoisin. From the text:
Foster et al., Br. J. Pharmacol., 1988, 94, 602-608.
Eledoisin is a peptide of batrachian origin which is equivalent to neurokinin B.

By pKi is commonly meant the Ki on a negative log10 scale, so that one unit is a factor of ten. As for `CC(=O)N(c1ccccc1)C1CCN(CCC(CN(C)C(=O)c2ccccc2)c2ccc(Cl)c(Cl)c2)CC1` (stereo not drawn) [Compound 8, N-[4-(N'-4-Acetylanilino-1-piperidinyl)-2-(3,4-dichlorophenyl)butyl]-N-methylbenzamide hydrochloride], the pKi in test [1] is 8.26.

With `O=C(NCC(CCN1CCC(Sc2ccccn2)CC1)c1ccc(Cl)c(Cl)c1)c1ccc(Cl)cc1Cl` (stereo not drawn) [Compound 4], the pKi in the test with substance P binding is 7.39. As for `O=C(NCC(CCN1CCC(Nc2ccccc2)CC1)c1ccc(Cl)c(Cl)c1)c1ccc(F)c2ccccc12` (stereo not drawn) [Compound 9], the pKi in test [2] is 6.40.

The values above are taken from patent US5411971A, “N-alkylenepiperidino compounds, their enantiomers and pharmaceutical compositions” (Elf Sanofi, priority 1991, dated 1995).
